# From patent US20250382588A1, “CHIMERIC AAV AND USES THEREOF” (priority 2023, published 2025)
# Legend:
# [1] = Rotation behavior after nigral EYFP control AAV and CNO; format: in vivo, mice; settings: for rotation behavior (FIG. 6C): AAV8R12-G88P3-EYFP; for rotation behavior (FIG. 6C) / rotation behavior (FIG. 7C): n=5; for rotation behavior (FIG. 7C): AAV8R12-G88P7-EYFP
# Description: Mice were anesthetized with sodium pentobarbital (Nembutal; 80 mg/kg, i.p.), and then placed into a stereotaxic device (KOPF). Eye cream was applied on both corneas to avoid dehydration. The skull above the targeted areas was thinned with a dental drill and carefully removed. Injections were conducted with a 10 μL syringe connected to a 33-Gauge needle (Neuros; Hamilton), using a microsyringe pump (Legato 130, KD Scientific). A total volume of 200 nL virus was injected into the SNr at a speed of 20 nL/min. The coordinates for the SNr were 3.4 mm posterior, 1.3 mm lateral, 4.8 mm ventral to the bregma.
# Mice that were used in the behavioral experiments were then implanted with guide cannulas (KOPF) unilaterally aiming at the dorsomedial striatum (0.5 mm anterior, 1.5 mm lateral, 3.5 mm ventral to the bregma). The cannulas were fixed to the skull with dental cement. Stainless steel obturators were inserted into the guide cannulas and were replaced every other day to maintain the patency until infusions were made. Mice were allowed to recover from the surgery for at least 3 weeks before further studies.
# Mice were individually handled for 10-20 seconds per day for at least 5 days to habituate them to the experimenter. The open field test was conducted in a test apparatus (50 cm×50 cm×50 cm) with an HD digital camera (Sony) positioned above the arena. On day one, mice were habituated to the apparatus for 10 minutes. On day 2, mice were administrated saline (0.1 mL i.p. or 200 nL intracranially [i.c.] through the guide cannulas). On day 3, mice were administrated with Clozapine-N-oxide (CNO, Hello Bio, HB1807; 0.3 mg/kg i.p. or 200 nL at 100 μM i.e.). All behavioral tests were conducted 30 minutes after injection. During the test, mice were allowed to freely explore the apparatus for 10 minutes. The behavioral data were analyzed with ANY-maze software (Stoelting Co.).
# [2] = Locomotion test in naive macaques after CNO; format: in vivo
# Description: The locomotion tests for monkeys were conducted in a custom-made observation cage (100 cm×100 cm×100 cm). The top and front of the cage were made of toughened glass in order to gain a clear view for behavioral recording. Monkeys were habituated to the observation cage by placing them inside for 30 minutes on three separate days.
# For monkeys injected with AAV8R12-G88P3-HA-hM3Dq, CNO was intracranially infused into the dorsomedial caudate through the recording chamber. To infuse while the animal was awake, the monkey was trained to sit in a primate chair specially designed with its head fixed to the primate chair by a mask made of thermoplastic materials. Injections were conducted through a 33-Gauge needle connected to a 250 μL syringe via a polyethylene pipe (Hamilton, Neuros). […] The needle was held for 5 minutes for drug diffusion before retraction. […] Videos capturing the subjects' behavior were recorded for at least 90 minutes. Animal behaviors from 30-90 minutes after saline/CNO infusion were further analyzed and quantified.
# For rotation analysis, only movements that occurred lower than 30 cm on the z-axis were counted. To determine the direction of the rotation, we first computed the center for the rotation data in the x-y plane as (x0, y0) by averaging all data points, and then we computed the angle relative to (x0, y0) for each time point by the following formula:
# where θi represents the rotating angle at time i, and (xi, yi) represents the x-y coordinate at time i. We then calculated the change of rotating angle as Δθi=θi−θi-1. For right nigral injections, when Δθ<0, the direction of the rotation was anticlockwise and was labeled as a contraversive rotation. When Δθ>0, the direction of the rotation was clockwise and was labeled as an ipsiversive rotation. The raw data were analyzed and plotted through a custom R package. Code is available on Github (github.com/chenyef/PD_ana/blob/main/Behavior_ana.txt).
structure (smiles),measurement,setting,value
"C[N+]1([O-])CCN(C2=Nc3cc(Cl)ccc3Nc3ccccc32)CC1 [CNO, clozapine N-oxide]",rotation behavior (FIG. 6C),[1]; CNO i.p.,44.72±10.89
same,rotation behavior (FIG. 6C),[1]; CNO intracranial,61.39±5.774
same,rotation behavior (FIG. 7C),[1]; CNO i.p.,46.88±7.497
same,rotation behavior (FIG. 7C),[1]; CNO intracranial,34.55±7.536
same,"rotational behaviors, in words",[1]; animals that received the EYFP control vector named at the place,didn't induce rotational behaviors
same,immobile time (FIG. 11E),"[2]; naive macaques, n=3",149.8±22.65
same,percentage of contraversive and ipsiversive rotation (FIG. 11C),"[2]; naive macaques, n=3",0.8384±0.4152
same,speed of contraversive rotations (FIG. 11G),"[2]; naive macaques, n=3",39.63±7.092
same,speed of ipsiversive rotations (FIG. 11H),"[2]; naive macaques, n=3",42.79±4.705
same,time spending in the higher portion of the observing cages (FIG. 11D),"[2]; naive macaques, n=3",60.43±4.542
same,total distance (FIG. 11F),"[2]; naive macaques, n=3",59.48±18.65
same,"behavioral changes in naïve monkeys, in words",[2]; no viral injections,did not induce significant behavioral changes
